Experimental data: patent publication US9289496B2, “Lipid dipeptide and gel” (Nissan Chemical Industries, Ltd., priority 2008, dated 2016)
Residues, ends and D or L forms follow the SMILES beside them.

How the values were obtained:
[1] = Evaluation of gelation of lipid peptides with pure water; format: physicochemical
Procedure: Each of the lipid peptides synthesized in Examples 1, 6, 7, 8, and 10 was placed in a sample tube. Pure water (without metals and ions) was added so that a solution would have a lipid peptide concentration of 0.25 or 0.5% (w/v) (w means mass (g), and v means volume (mL)). The mixture was heated at 90° C. or more to dissolve the lipid peptide, and then allowed to cool.

[2] = Evaluation of gelation of lipid peptides with phosphate buffer; format: physicochemical
Procedure: Each of the lipid peptides synthesized in Examples 3 to 10 and Example 14 was placed in a sample tube. Each of three phosphate buffers (PBS) (pH=2.6, 7.4, or 10) was added so that a solution would have a lipid peptide concentration of 0.25 or 0.5% (w/v) (conditions A to F). Then, the mixture was heated at 90° C. or more to dissolve the lipid peptide, and then allowed to cool.

[3] = acidic region (pH=2.6), concentration 0.25%
[4] = acidic region (pH=2.6), concentration 0.5%
[5] = condition A: phosphate buffer pH = 2.6, 0.5% (w/v)
[6] = condition B: phosphate buffer pH = 2.6, 0.25% (w/v)
[7] = condition C: phosphate buffer pH-7.4, 0.5% (w/v)
[8] = condition D: phosphate buffer pH-7.4, 0.25% (w/v)
[9] = condition E: phosphate buffer pH = 10, 0.5% (w/v)

## CCCCCCCCCCCC(=O)NCC(=O)N[C@@H](Cc1c[nH]cn1)C(=O)O.O=C(O)C(F)(F)F [Example 6, N-Lauroyl-Gly-His.TFA Salt] (HELM PEPTIDE1{[CCCCCCCCCCCC(=O)[*:2]].G.H}$$$$V2.0)
[1]; lipid peptide 0.25% (w/v)
  Gelation: ◯
[1]; lipid peptide 0.50% (w/v)
  Gelation: ◯
[2]; [3]
  Gel formation: formed gels
[2]; [4]
  Gel formation: formed gels
[2]; basic region (pH=10), concentration 0.25%
  Gel formation: formed a gel
[2]; [5]
  Gelation: ◯
[2]; [6]
  Gelation: ◯
[2]; [7]
  Gelation: ◯
[2]; [8]
  Gelation: ◯
[2]; [9]
  Gelation: ◯
[2]; condition F: phosphate buffer pH = 10, 0.25% (w/v)
  Gelation: ◯

## CCCCCCCCCCCCCCCCCCCCCC(=O)NCC(=O)N[C@@H](Cc1c[nH]cn1)C(=O)O.O=C(O)C(F)(F)F [Example 7, N-Behenoyl-Gly-His.TFA Salt]
[1]; lipid peptide 0.25% (w/v)
  Gelation: ◯
[1]; lipid peptide 0.50% (w/v)
  Gelation: ◯
[2]; [4]
  Gel formation: formed gels
[2]; [5]
  Gelation: ◯
[2]; [7]
  Gelation: ◯
[2]; [8]
  Gelation: ◯
[2]; [9]
  Gelation: ◯

## CCCCCCCCCCCCCC(=O)NCC(=O)N[C@@H](Cc1c[nH]cn1)C(=O)O.O=C(O)C(F)(F)F [Example 8, N-Myristoyl-Gly-His.TFA Salt] (HELM PEPTIDE1{[CCCCCCCCCCCCCC(=O)[*:2]].G.H}$$$$V2.0)
[1]; lipid peptide 0.25% (w/v)
  Gelation: ◯
[1]; lipid peptide 0.50% (w/v)
  Gelation: ◯
[2]; [3]
  Gel formation: formed gels
[2]; [4]
  Gel formation: formed gels
[2]; [5]
  Gelation: ◯
[2]; [6]
  Gelation: ◯
[2]; [7]
  Gelation: ◯
[2]; [8]
  Gelation: ◯
[2]; [9]
  Gelation: ◯

## CCCCCCCCCCCCCCCC(=O)N[C@@H](C)C(=O)N[C@@H](Cc1c[nH]cn1)C(=O)O.O=C(O)C(F)(F)F [Example 10, N-Palmitoyl-Ala-His.TFA salt] (HELM PEPTIDE1{[CCCCCCCCCCCCCCCC(=O)[*:2]].A.H}$$$$V2.0)
[1]; lipid peptide 0.25% (w/v)
  Gelation: ◯
[1]; lipid peptide 0.50% (w/v)
  Gelation: ◯
[2]; [3]
  Gel formation: formed gels
[2]; [4]
  Gel formation: formed gels
[2]; [5]
  Gelation: ◯
[2]; [6]
  Gelation: ◯
[2]; [7]
  Gelation: ◯
[2]; [8]
  Gelation: ◯
[2]; [9]
  Gelation: ◯

## CCCCCCCCCCCCCCCC(=O)N[C@H](C(=O)N[C@@H](Cc1c[nH]cn1)C(=O)O)C(C)C.O=C(O)C(F)(F)F [Example 11, N-Palmitoyl-Val-His.TFA Salt] (HELM PEPTIDE1{[CCCCCCCCCCCCCCCC(=O)[*:2]].V.H}$$$$V2.0)
[2]; [7]
  Gelation: ◯
[2]; [8]
  Gelation: ◯
[2]; [9]
  Gelation: ◯

## CCCCCCCCCCCCCCCC(=O)N[C@@H](Cc1c[nH]cn1)C(=O)NCC(=O)O.O=C(O)C(F)(F)F [Example 14, N-Palmitoyl-His-Gly.TFA Salt] (HELM PEPTIDE1{[CCCCCCCCCCCCCCCC(=O)[*:2]].H.G}$$$$V2.0)
[2]; [7]
  Gelation: ◯
[2]; [8]
  Gelation: ◯
[2]; [9]
  Gelation: ◯
